# Patent US12559492B2, “BRAF degraders” (C4 Therapeutics, Inc., priority 2020, dated 2026)
# Counter-ions that a name gives are not always drawn.
# Molecular target: BRAF^V600E protein (Homo sapiens, UniProt P15056, V600E)
# Test: HiBiT cellular BRAF V600E degradation assay
# Format: cell-based
# Conditions: 24 h incubation; for DC50: A375.10 cells (HiBiT tag knocked in at N-terminal of BRAF V600E), concentration at which 50% of total cellular BRAF V600E is degraded; for Emax: A375.10 cells, Emax = amount of residual protein remaining in the cell after compound treatment, read-out: HiBit 24 h Emax
# Sequence of BRAF^V600E protein (P15056 whole entry V600E): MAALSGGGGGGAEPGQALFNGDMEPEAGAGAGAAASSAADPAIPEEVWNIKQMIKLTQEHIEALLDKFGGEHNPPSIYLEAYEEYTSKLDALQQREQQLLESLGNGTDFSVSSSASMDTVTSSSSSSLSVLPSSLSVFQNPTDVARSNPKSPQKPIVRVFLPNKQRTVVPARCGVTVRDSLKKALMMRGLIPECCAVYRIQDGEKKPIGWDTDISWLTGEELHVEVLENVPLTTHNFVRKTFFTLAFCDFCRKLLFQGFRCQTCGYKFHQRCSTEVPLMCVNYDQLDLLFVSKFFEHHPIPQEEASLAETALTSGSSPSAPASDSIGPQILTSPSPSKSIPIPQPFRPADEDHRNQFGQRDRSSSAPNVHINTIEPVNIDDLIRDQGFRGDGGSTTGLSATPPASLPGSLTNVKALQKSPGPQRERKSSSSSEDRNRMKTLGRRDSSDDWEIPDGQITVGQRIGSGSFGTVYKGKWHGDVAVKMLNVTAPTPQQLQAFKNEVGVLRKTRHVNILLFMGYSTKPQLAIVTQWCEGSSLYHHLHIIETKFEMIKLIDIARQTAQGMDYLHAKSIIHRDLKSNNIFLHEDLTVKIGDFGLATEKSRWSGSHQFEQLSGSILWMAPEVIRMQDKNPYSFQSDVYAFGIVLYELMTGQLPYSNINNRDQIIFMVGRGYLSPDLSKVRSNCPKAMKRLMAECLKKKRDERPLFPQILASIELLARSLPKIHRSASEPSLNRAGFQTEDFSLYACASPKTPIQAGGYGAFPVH
DC50,Emax,Structure (SMILES)
15 nM,13%,"CCN(C)S(=O)(=O)Nc1ccc(F)c(C(=O)c2c[nH]c3ncc(-c4cnc(N5CCN(C(=O)CN6CCC(c7ccc(OC8CCC(=O)NC8=O)cc7)CC6)CC5)nc4)cc23)c1F (stereo not drawn) [Example A6, 5-[2-[4-[2-[4-[4-(2,6-Dioxopiperidin-3-yl)oxyphenyl]piperidin-1-yl]acetyl]piperazin-1-yl]pyrimidin-5-yl]-3-[3-[[ethyl(methyl)sulfamoyl]amino]-2,6-difluorobenzoyl]-1H-pyrrolo[2,3-b]pyridine]"
12 nM,12%,"CCN(C)S(=O)(=O)Nc1ccc(F)c(C(=O)c2c[nH]c3ncc(-c4ccc(N5CCC(NCC(=O)N6CCC(c7ccc(NC8CCC(=O)NC8=O)cc7)CC6)CC5)cc4)cc23)c1F (stereo not drawn) [Example A98, 5-[4-[4-[[2-[4-[4-[(2,6-Dioxopiperidin-3-yl)amino]phenyl]piperidin-1-yl]-2-oxoethyl]amino]piperidin-1-yl]phenyl]-3-[3-[[ethyl(methyl)sulfamoyl]amino]-2,6-difluorobenzoyl]-1H-pyrrolo[2,3-b]pyridine; hydrochloride]"
49 nM,13%,"CCN(C)S(=O)(=O)Nc1ccc(F)c(C(=O)c2c[nH]c3ncc(-c4ccc(N5CCN(C(=O)CCCN6CCC(c7ccc(C8CCC(=O)NC8=O)cc7)CC6)CC5)nc4)cc23)c1F (stereo not drawn) [Example A81, 5-[6-[4-[4-[4-[4-(2,6-Dioxopiperidin-3-yl)phenyl]piperidin-1-yl]butanoyl]piperazin-1-yl]pyridin-3-yl]-3-[3-[[ethyl(methyl)sulfamoyl]amino]-2,6-difluorobenzoyl]-1H-pyrrolo[2,3-b]pyridine]"
84 nM,19%,"CCN(C)S(=O)(=O)Nc1ccc(F)c(C(=O)c2c[nH]c3ncc(-c4ccc(CN5CCC(C(=O)N6CCN(c7ccc(OC8CCC(=O)NC8=O)cc7)CC6)C5)cc4)cc23)c1F (stereo not drawn) [Example A19, 5-[4-[[3-[4-[4-(2,6-Dioxopiperidin-3-yl)oxyphenyl]piperazine-1-carbonyl]pyrrolidin-1-yl]methyl]phenyl]-3-[3-[[ethyl(methyl)sulfamoyl]amino]-2,6-difluorobenzoyl]-1H-pyrrolo[2,3-b]pyridine]"
17 nM,13%,"CCN(C)S(=O)(=O)Nc1ccc(F)c(C(=O)c2c[nH]c3ncc(-c4ccc(N5CCC(NC(=O)CN6CCC(c7ccc(NC8CCC(=O)NC8=O)cc7)CC6)CC5)nc4)cc23)c1F (stereo not drawn) [Example A66, 2-[4-[4-[(2,6-Dioxopiperidin-3-yl)amino]phenyl]piperidin-1-yl]-N-[1-[5-[3-[3-[[ethyl(methyl)sulfamoyl]amino]-2,6-difluorobenzoyl]-1H-pyrrolo[2,3-b]pyridin-5-yl]pyridin-2-yl]piperidin-4-yl]acetamide; formic acid]"
77 nM,20%,"CCN(C)S(=O)(=O)Nc1ccc(F)c(C(=O)c2c[nH]c3ncc(-c4ccc(CN5CCN(C(=O)CN6CCC(c7ccc(OC8CCC(=O)NC8=O)cc7)CC6)CC5)cc4)cc23)c1F (stereo not drawn) [Example A22, 5-[4-[[4-[2-[4-[4-(2,6-Dioxopiperidin-3-yl)oxyphenyl]piperidin-1-yl]acetyl]piperazin-1-yl]methyl]phenyl]-3-[3-[[ethyl(methyl)sulfamoyl]amino]-2,6-difluorobenzoyl]-1H-pyrrolo[2,3-b]pyridine]"

# More lines, now with the values behind:
Structure (SMILES),DC50,Emax
"CCN(C)S(=O)(=O)Nc1cccc(C(=O)c2c[nH]c3ncc(-c4ccc(N5CCN(C(=O)CN6CCC(c7ccc(NC8CCC(=O)NC8=O)cc7)CC6)CC5)nc4)cc23)c1F (stereo not drawn) [Example 107, 5-[6-[4-[2-[4-[4-[(2,6-dioxo-3-piperidyl)amino]phenyl]-1-piperidyl]acetyl]piperazin-1-yl]-3-pyridyl]-3-[3-[[ethyl(methyl)sulfamoyl]amino]-2-fluoro-benzoyl]-1H-pyrrolo[2,3-b]pyridine]",3.08 nM,7.97%
"CC(C)S(=O)(=O)Nc1ccc(F)c(C(=O)c2c[nH]c3ncc(-c4ccc(N5CCN(C(=O)CN6CCC(c7ccc(C8CCC(=O)NC8=O)cc7F)CC6)CC5)nc4)cc23)c1F (stereo not drawn) [Example 15, N-[3-[5-[6-[4-[2-[4-[4-(2,6-dioxo-3-piperidyl)-2-fluoro-phenyl]-1-piperidyl]acetyl]piperazin-1-yl]-3-pyridyl]-1H-pyrrolo[2,3-b]pyridine-3-carbonyl]-2,4-difluoro-phenyl]propane-2-sulfonamide]",9.59 nM,2.65%
"CCN(C)S(=O)(=O)Nc1cccc(C(=O)c2c[nH]c3ncc(-c4cnc(N5CCN(C(=O)CC6(O)CCN(c7ccc(NC8CCC(=O)NC8=O)cc7F)CC6)CC5)nc4)cc23)c1F (stereo not drawn) [Example 101, 5-[2-[4-[2-[1-[4-[(2,6-dioxo-3-piperidyl)amino]-2-fluoro-phenyl]-4-hydroxy-4-piperidyl]acetyl]piperazin-1-yl]pyrimidin-5-yl]-3-[3-[[ethyl(methyl)sulfamoyl]amino]-2-fluoro-benzoyl]-1H-pyrrolo[2,3-b]pyridine]",3.38 nM,10.2%
"CCN(C)S(=O)(=O)Nc1ccc(F)c(C(=O)c2c[nH]c3ncc(-c4ccc(N5CCN(C(=O)CC6(O)CCN(c7cc(F)c(N8CCC(=O)NC8=O)cc7Cl)CC6)CC5)nc4)cc23)c1F [Example 215, 5-[6-[4-[2-[1-[2-chloro-4-(2,4-dioxohexahydropyrimidin-1-yl)-5-fluoro-phenyl]-4-hydroxy-4-piperidyl]acetyl]piperazin-1-yl]-3-pyridyl]-3-[3-[[ethyl(methyl)sulfamoyl]amino]-2,6-difluoro-benzoyl]-1H-pyrrolo[2,3-b]pyridine]",2.71 nM,7.87%
"CCN(C)S(=O)(=O)Nc1cccc(C(=O)c2c[nH]c3ncc(-c4cnc(N5CCN(C(=O)CN6CCC(c7ccc(NC8CCC(=O)NC8=O)cc7)CC6)CC5)nc4)cc23)c1F (stereo not drawn) [Example 96, 5-[2-[4-[2-[4-[4-[(2,6-dioxo-3-piperidyl)amino]phenyl]-1-piperidyl]acetyl]piperazin-1-yl]pyrimidin-5-yl]-3-[3-[[ethyl(methyl)sulfamoyl]amino]-2-fluoro-benzoyl]-1H-pyrrolo[2,3-b]pyridine]",9.43 nM,8.26%
"CCN(C)S(=O)(=O)Nc1ccc(F)c(C(=O)c2c[nH]c3ncc(-c4ccc(N5CCN(C(=O)CC6(O)CCN(c7ccc(NC8CCC(=O)NC8=O)cc7F)CC6)CC5)nc4)cc23)c1F (stereo not drawn) [Example 79, 5-[6-[4-[2-[1-[4-[(2,6-dioxo-3-piperidyl)amino]-2-fluoro-phenyl]-4-hydroxy-4-piperidyl]acetyl]piperazin-1-yl]-3-pyridyl]-3-[3-[[ethyl(methyl)sulfamoyl]amino]-2,6-difluoro-benzoyl]-1H-pyrrolo[2,3-b]pyridine]",2.13 nM,9.51%
"CCN(C)S(=O)(=O)Nc1cccc(C(=O)c2c[nH]c3ncc(-c4cnc(N5CCN(C(=O)CC6(O)CCN(c7ccc(C8CCC(=O)NC8=O)cc7F)CC6)CC5)nc4)cc23)c1F (stereo not drawn) [Example 162, 5-[2-[4-[2-[1-[4-(2,6-dioxo-3-piperidyl)-2-fluoro-phenyl]-4-hydroxy-4-piperidyl]acetyl]piperazin-1-yl]pyrimidin-5-yl]-3-[3-[[ethyl(methyl)sulfamoyl]amino]-2-fluoro-benzoyl]-1H-pyrrolo[2,3-b]pyridine]",2.09 nM,7.81%
"CCN(C)S(=O)(=O)Nc1ccc(F)c(C(=O)c2c[nH]c3ncc(-c4cnc(N5CCN(C(=O)CN6CCC(c7ccc(NC8CCC(=O)NC8=O)cc7)CC6)CC5)nc4)cc23)c1C (stereo not drawn) [Example 123, 5-[2-[4-[2-[4-[4-[(2,6-dioxo-3-piperidyl)amino]phenyl]-1-piperidyl]acetyl]piperazin-1-yl]pyrimidin-5-yl]-3-[3-[[ethyl(methyl)sulfamoyl]amino]-6-fluoro-2-methyl-benzoyl]-1H-pyrrolo[2,3-b]pyridine]",46.4 nM,11.7%
"CCN(C)S(=O)(=O)Nc1ccc(F)c(C(=O)c2c[nH]c3ncc(-c4ccc(N5CCN(C(=O)CC6(O)CCN(c7ccc(NC8CCC(=O)NC8=O)cc7F)CC6)CC5)nc4)cc23)c1Cl (stereo not drawn) [Example 170, 3-[2-chloro-3-[[ethyl(methyl)sulfamoyl]amino]-6-fluoro-benzoyl]-5-[6-[4-[2-[1-[4-[(2,6-dioxo-3-piperidyl)amino]-2-fluoro-phenyl]-4-hydroxy-4-piperidyl]acetyl]piperazin-1-yl]-3-pyridyl]-1H-pyrrolo[2,3-b]pyridine]",4.59 nM,10.5%
"CCN(C)S(=O)(=O)Nc1ccc(F)c(C(=O)c2c[nH]c3ncc(-c4cnc(N5CC[C@@H](CC(=O)N6CCC(c7ccc(NC8CCC(=O)NC8=O)cc7)CC6)C5)nc4)cc23)c1F (stereo partly drawn) [Example 131, 5-[2-[(3S)-3-[2-[4-[4-[(2,6-dioxo-3-piperidyl)amino]phenyl]-1-piperidyl]-2-oxo-ethyl]pyrrolidin-1-yl]pyrimidin-5-yl]-3-[3-[[ethyl(methyl)sulfamoyl]amino]-2,6-difluoro-benzoyl]-1H-pyrrolo[2,3-b]pyridine]",27.1 nM,21.2%
"CCN(C)S(=O)(=O)Nc1ccc(F)c(C(=O)c2c[nH]c3ncc(-c4ccc(N5CCN(C(=O)CC6(O)CCN(c7ccc(N[C@@H]8CCC(=O)NC8=O)cc7F)CC6)CC5)nc4)cc23)c1F [Example 177, 5-[6-[4-[2-[1-[4-[[(3R)-2,6-dioxo-3-piperidyl]amino]-2-fluoro-phenyl]-4-hydroxy-4-piperidyl]acetyl]piperazin-1-yl]-3-pyridyl]-3-[3-[[ethyl(methyl)sulfamoyl]amino]-2,6-difluoro-benzoyl]-1H-pyrrolo[2,3-b]pyridine]",3.65 nM,9.99%
"CCN(C)S(=O)(=O)Nc1cccc(C(=O)c2c[nH]c3ncc(-c4ccc(N5CCN(C(=O)CC6(O)CCN(c7ccc(NC8CCC(=O)NC8=O)cn7)CC6)CC5)cc4)cc23)c1F (stereo not drawn) [Example 117, 5-[4-[4-[2-[1-[5-[(2,6-dioxo-3-piperidyl)amino]-2-pyridyl]-4-hydroxy-4-piperidyl]acetyl]piperazin-1-yl]phenyl]-3-[3-[[ethyl(methyl)sulfamoyl]amino]-2-fluoro-benzoyl]-1H-pyrrolo[2,3-b]pyridine]",23.1 nM,25.3%
